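Briefly, cells in 96-well plates were exposed to five compound concentrations for 48 h, and endpoints were estimated by linear interpolation. TGI marks complete inhibition of growth.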
What follows are molecules tested on TK-10 renal (assay: NCI-60 cell line screen, 48 h).

Point of comparison: `N#CCN1C(=O)c2cccc3cc([N+](=O)[O-])cc(c23)C1=O`, TGI 95.6 µM. Against it:
- Cc1nc(N)sc1C(=O)/C=C\c1ccc2c(c1)OCO2 — higher, > 100 µM
- COc1cc(C(C)O)c[n+](CCc2c[nH]c3ccccc23)c1 (centres undefined) — higher, > 100 µM
- CC1(C)SCc2nc3ncccc3n21 — higher, > 100 µM
- Cn1c(=O)c(C(c2ccc([N+](=O)[O-])cc2)c2c(O)c3ccccc3n(C)c2=O)cc2ccccc21 (centres undefined) — within 1.5-fold, 84.7 µM
- Cc1cn(C2CC(O)C(CO)O2)c(=O)n2nnnc12 (centres undefined) — higher, > 100 µM
- COc1ccc(C(=O)C(C(=O)CCC(=O)Nc2cccc(Cl)c2)c2ccc(OC)cc2)cc1 (centres undefined) — higher, > 100 µM
- CCOC(=O)C1=C(C)N(NC(=O)Nc2ccccc2)C(=O)C1=P(c1ccccc1)(c1ccccc1)c1ccccc1 — higher, > 100 µM
- COc1cc(C=C2C(=O)NC(=O)NC2=O)cc(OC)c1OC — higher, > 100 µM
- Nn1c(=O)n(Cc2ccccc2)n(-c2ccccc2)c1=O — higher, > 100 µM
- Cc1ccc(C2=C(c3ccccc3)C(Br)(c3ccc(C)cc3)C(c3ccccc3)=C2c2ccc(C)cc2)cc1 — higher, > 100 µM
- CC(C)C(Nc1c2ccccc2nc2ccccc12)C(=O)O (centres undefined) — higher, > 100 µM
- COc1ccccc1CCc1cc(OC)c(OC)c(OC)c1 — higher, > 100 µM
- COC(=O)/C(=N\Nc1nnc(C)n1N)C(C#N)c1ccc(Cl)cc1 (centres undefined) — higher, > 100 µM
- Cc1cccc(NC(=O)C(=O)C(C(=O)c2ccc3ccccc3c2)C2OC(=O)c3ccccc32)c1C (centres undefined) — 1.9-fold lower, 50.9 µM
- CS/C(N)=N\NC(=O)CCC(=O)Nc1ccccc1C(F)(F)F — higher, > 100 µM
- CC(C)(C)c1ccc2c(c1)S(=O)(=O)Nc1ccccc1NS(=O)(=O)c1cc(C(C)(C)C)ccc1OCCOCCOCCO2 — higher, > 100 µM
- CC1(C)C(=O)N(CCCCCCN2C(=O)C(C)(C)c3ccccc32)c2ccccc21 — higher, > 100 µM
- Cc1cccc(NC(=O)/C(=N\NC(C)(C)C)C2NC(=S)NC2=O)c1C (centres undefined) — higher, > 100 µM
- c1ccc(CNn2nnc3ccccc32)cc1 — higher, > 100 µM

What follows are molecules tested on HT29 colon (assay: NCI-60 cell line screen, 48 h).

Point of comparison: `CC1(C)C(=O)N(CCCCCCN2C(=O)C(C)(C)c3ccccc32)c2ccccc21`, TGI 43.5 µM. Against it:
- Cc1nc(N)sc1C(=O)/C=C\c1ccc2c(c1)OCO2 — higher, > 100 µM
- COc1cc(C(C)O)c[n+](CCc2c[nH]c3ccccc23)c1 (centres undefined) — higher, > 100 µM
- CC1(C)SCc2nc3ncccc3n21 — higher, > 100 µM
- Cn1c(=O)c(C(c2ccc([N+](=O)[O-])cc2)c2c(O)c3ccccc3n(C)c2=O)cc2ccccc21 (centres undefined) — higher, > 100 µM
- Cc1cn(C2CC(O)C(CO)O2)c(=O)n2nnnc12 (centres undefined) — higher, > 100 µM
- COc1ccc(C(=O)C(C(=O)CCC(=O)Nc2cccc(Cl)c2)c2ccc(OC)cc2)cc1 (centres undefined) — higher, > 100 µM
- CCOC(=O)C1=C(C)N(NC(=O)Nc2ccccc2)C(=O)C1=P(c1ccccc1)(c1ccccc1)c1ccccc1 — higher, > 100 µM
- COc1cc(C=C2C(=O)NC(=O)NC2=O)cc(OC)c1OC — higher, > 100 µM
- Nn1c(=O)n(Cc2ccccc2)n(-c2ccccc2)c1=O — higher, > 100 µM
- N#CCN1C(=O)c2cccc3cc([N+](=O)[O-])cc(c23)C1=O — higher, > 100 µM
- CC(C)C(Nc1c2ccccc2nc2ccccc12)C(=O)O (centres undefined) — higher, > 100 µM
- COc1ccccc1CCc1cc(OC)c(OC)c(OC)c1 — higher, > 100 µM
- COC(=O)/C(=N\Nc1nnc(C)n1N)C(C#N)c1ccc(Cl)cc1 (centres undefined) — higher, > 100 µM
- Cc1cccc(NC(=O)C(=O)C(C(=O)c2ccc3ccccc3c2)C2OC(=O)c3ccccc32)c1C (centres undefined) — within 1.5-fold, 64.4 µM
- CS/C(N)=N\NC(=O)CCC(=O)Nc1ccccc1C(F)(F)F — higher, > 100 µM
- CC(C)(C)c1ccc2c(c1)S(=O)(=O)Nc1ccccc1NS(=O)(=O)c1cc(C(C)(C)C)ccc1OCCOCCOCCO2 — higher, > 100 µM
- NC(N)=N/N=C(\c1nc2ccc([N+](=O)[O-])cc2[nH]c1=O)C(O)c1ccc([N+](=O)[O-])cc1 (centres undefined) — higher, > 100 µM
- NCCCCN(CCCN)/[N+]([O-])=N\O — higher, > 100 µM
- c1ccc(CNn2nnc3ccccc32)cc1 — higher, > 100 µM

The molecules below were run on 786-0 renal (assay: NCI-60 cell line screen, 48 h).

Point of comparison: `CC1(C)C(=O)N(CCCCCCN2C(=O)C(C)(C)c3ccccc32)c2ccccc21`, TGI 40.8 µM. Against it:
- Cc1nc(N)sc1C(=O)/C=C\c1ccc2c(c1)OCO2 — higher, > 100 µM
- COc1cc(C(C)O)c[n+](CCc2c[nH]c3ccccc23)c1 (centres undefined) — higher, > 100 µM
- CC1(C)SCc2nc3ncccc3n21 — higher, > 100 µM
- Cn1c(=O)c(C(c2ccc([N+](=O)[O-])cc2)c2c(O)c3ccccc3n(C)c2=O)cc2ccccc21 (centres undefined) — higher, > 100 µM
- Cc1cn(C2CC(O)C(CO)O2)c(=O)n2nnnc12 (centres undefined) — higher, > 100 µM
- COc1ccc(C(=O)C(C(=O)CCC(=O)Nc2cccc(Cl)c2)c2ccc(OC)cc2)cc1 (centres undefined) — higher, > 100 µM
- CCOC(=O)C1=C(C)N(NC(=O)Nc2ccccc2)C(=O)C1=P(c1ccccc1)(c1ccccc1)c1ccccc1 — higher, > 100 µM
- COc1cc(C=C2C(=O)NC(=O)NC2=O)cc(OC)c1OC — higher, > 100 µM
- Nn1c(=O)n(Cc2ccccc2)n(-c2ccccc2)c1=O — higher, > 100 µM
- Cc1ccc(C2=C(c3ccccc3)C(Br)(c3ccc(C)cc3)C(c3ccccc3)=C2c2ccc(C)cc2)cc1 — higher, > 100 µM
- N#CCN1C(=O)c2cccc3cc([N+](=O)[O-])cc(c23)C1=O — higher, > 100 µM
- CC(C)C(Nc1c2ccccc2nc2ccccc12)C(=O)O (centres undefined) — higher, > 100 µM
- COc1ccccc1CCc1cc(OC)c(OC)c(OC)c1 — higher, > 100 µM
- COC(=O)/C(=N\Nc1nnc(C)n1N)C(C#N)c1ccc(Cl)cc1 (centres undefined) — higher, > 100 µM
- Cc1cccc(NC(=O)C(=O)C(C(=O)c2ccc3ccccc3c2)C2OC(=O)c3ccccc32)c1C (centres undefined) — 2-fold lower, 20.3 µM
- CS/C(N)=N\NC(=O)CCC(=O)Nc1ccccc1C(F)(F)F — higher, > 100 µM
- CC(C)(C)c1ccc2c(c1)S(=O)(=O)Nc1ccccc1NS(=O)(=O)c1cc(C(C)(C)C)ccc1OCCOCCOCCO2 — higher, > 100 µM
- NC(N)=N/N=C(\c1nc2ccc([N+](=O)[O-])cc2[nH]c1=O)C(O)c1ccc([N+](=O)[O-])cc1 (centres undefined) — higher, > 100 µM
- NCCCCN(CCCN)/[N+]([O-])=N\O — higher, > 100 µM
- Cc1cccc(NC(=O)/C(=N\NC(C)(C)C)C2NC(=S)NC2=O)c1C (centres undefined) — higher, > 100 µM
- c1ccc(CNn2nnc3ccccc32)cc1 — higher, > 100 µM

These molecules were tested on SNB-19 CNS (assay: NCI-60 cell line screen, 48 h).

Point of comparison: `Cc1cccc(NC(=O)C(=O)C(C(=O)c2ccc3ccccc3c2)C2OC(=O)c3ccccc32)c1C` (centres undefined), TGI 25.4 µM. Against it:
- Cc1nc(N)sc1C(=O)/C=C\c1ccc2c(c1)OCO2 — higher, > 100 µM
- COc1cc(C(C)O)c[n+](CCc2c[nH]c3ccccc23)c1 (centres undefined) — higher, > 100 µM
- Cn1c(=O)c(C(c2ccc([N+](=O)[O-])cc2)c2c(O)c3ccccc3n(C)c2=O)cc2ccccc21 (centres undefined) — higher, > 100 µM
- Cc1cn(C2CC(O)C(CO)O2)c(=O)n2nnnc12 (centres undefined) — higher, > 100 µM
- COc1ccc(C(=O)C(C(=O)CCC(=O)Nc2cccc(Cl)c2)c2ccc(OC)cc2)cc1 (centres undefined) — higher, > 100 µM
- CCOC(=O)C1=C(C)N(NC(=O)Nc2ccccc2)C(=O)C1=P(c1ccccc1)(c1ccccc1)c1ccccc1 — higher, > 100 µM
- COc1cc(C=C2C(=O)NC(=O)NC2=O)cc(OC)c1OC — higher, > 100 µM
- Nn1c(=O)n(Cc2ccccc2)n(-c2ccccc2)c1=O — higher, > 100 µM
- Cc1ccc(C2=C(c3ccccc3)C(Br)(c3ccc(C)cc3)C(c3ccccc3)=C2c2ccc(C)cc2)cc1 — higher, > 100 µM
- N#CCN1C(=O)c2cccc3cc([N+](=O)[O-])cc(c23)C1=O — higher, > 100 µM
- CC(C)C(Nc1c2ccccc2nc2ccccc12)C(=O)O (centres undefined) — higher, > 100 µM
- COc1ccccc1CCc1cc(OC)c(OC)c(OC)c1 — higher, > 100 µM
- COC(=O)/C(=N\Nc1nnc(C)n1N)C(C#N)c1ccc(Cl)cc1 (centres undefined) — higher, > 100 µM
- CS/C(N)=N\NC(=O)CCC(=O)Nc1ccccc1C(F)(F)F — higher, > 100 µM
- CC(C)(C)c1ccc2c(c1)S(=O)(=O)Nc1ccccc1NS(=O)(=O)c1cc(C(C)(C)C)ccc1OCCOCCOCCO2 — higher, > 100 µM
- NC(N)=N/N=C(\c1nc2ccc([N+](=O)[O-])cc2[nH]c1=O)C(O)c1ccc([N+](=O)[O-])cc1 (centres undefined) — higher, > 100 µM

— PubChem BioAssay (NCI)
